According to patent US20250326785A1, “SODIUM SALT AND ETHANOLAMINE SALT OF 23-HYDROXYTORMENTIC ACID” (HUYABIO International, LLC, priority 2024, published 2025):
Read-outs that look alike come from different tables or passages of the source.

Key:
[1] = Salt disproportionation study (slurry in water, XRPD of solids, pH of mother liquor); format: physicochemical
Experimental: The pH of the filtered mother liquor was 9.77.
Salt disproportionation studies of ethanolamine salt. […] The pH of the filtered mother liquor was 8.65.
Method: 40 mg of sodium salt of HBI-3808 having a XRPD of Pattern 2, was weighed into a 2 mL push cap vial and a stirrer bar added. 0.2 mL of water was added to the vial and the experiment was stirred for ca. 24 h at 25° C. After 24 h the slurry was filtered by centrifuge filtration and the recovered solids were analyzed by XRPD. The pH of the filtered mother liquor was measured.

[2] = Varying humidity (VH)-XRPD; format: physicochemical; settings: 0-90% RH
Experimental: During the sorption phase, sodium salt Pattern 2 was observed between 40-60% RH. […] A mixture of sodium salt Pattern 2 and 5 was also observed at 80% RH. […] During the second desorption, from 90% RH to 40% RH, sodium salt Pattern 5 was maintained.
VH-XRPD analysis was carried out between 40-0% RH (FIG. 5L).

[3] = Dynamic vapor sorption (DVS) analysis; format: physicochemical
Experimental: GC analysis indicated residual solvent contents of 2847 ppm methanol; and 27 ppm TBME. […] No residual methanol or TBME was detected due to signal over-lap. […] TG-DSC analysis indicated two weight losses. The first weight loss of 2.3 wt. % was observed between 20-170° C. […] In the DSC thermogram, three endothermic events were observed (FIG. 17I). […] FT-IR (FIG. 17J) and Raman spectra (FIG. 17K) were recorded for reference. […] XRPD pattern of the ethanolamine salt was retained post-DVS (FIG. 17N). […] However, at the end of the experiment the solids on the microscope slide had discolored (FIG. 17O).

[4] = for HPLC Conc.: 24 h, starting concentration 100 mg/mL; for HPLC Conc. / HPLC Conc./: based on free acid
From the text: pH-dependent solubility of the HBI- 3808 sodium salt of Pattern 2 was studied.
pH dependent solubility of the HBI- 3808 sodium salt of Pattern 5 was studied.

[5] = Hydration study in methanol/water aw 0.1, 0.5 and 0.9; format: physicochemical
From the text: Hydration studies of ethanolamine salt.

[6] = Stability study at 25° C./60% RH, 40° C./75% RH and 60° C. (XRPD, HPLC purity, impurity tracking); settings: for XRPD: * = crystalline salt; for HPLC: based on free acid
From the text: Stability of HBI-3808 Sodium Salt Pattern 2 was studied over 13 weeks.
Table 2F presents impurity tracking results from a 13-week stability study of HBI-3808 sodium salt of Pattern 2. […]

[7] = 25° C./60% RH (open vial), 13 Weeks
[8] = 25° C./60% RH (open vial), 1 Week
[9] = 25° C./60% RH (open vial), 2 Weeks
[10] = 25° C./60% RH (open vial), 4 Weeks
[11] = 25° C./60% RH (open vial), 8 Weeks
[12] = 40° C./75% RH (open vial), 1 Week

pH of the filtered mother liquor [1]: 8.65
XRPD of recovered solids ([1]; ca. 24 h at 25° C.): no salt disproportionation had occurred
XRPD pattern / form stability over relative humidity [2]: no changes in XRPD Pattern
XRPD of recovered material post-DVS [3]: retained
water (mass) uptake ([3]; at 80% RH/25° C. (Pattern 2: second DVS cycle)): 3.0 wt. %
hygroscopicity ([3]; from water uptake at 80% RH, 25° C.): slightly hygroscopic
XRPD of recovered solids ([4]; FaSSGF): consistent with ethanolamine salt
final Measured pH ([4]; FaSSGF): 8.62
HPLC Conc. ([4]; FaSSGF, final pH 8.62): 57.2 mg/mL
XRPD pattern of recovered solids ([4]; FaSSGF, *** = crystalline salt): 1***
HPLC Conc./ ([4]; FaSSGF): 57.2 mg/mL
concentration ([4]; pH 1.2): < 1 µg/mL
XRPD of recovered solids ([4]; target pH 1.2): Amorphous solids
HPLC Conc. ([4]; target pH 1.2 buffer): <0.001 mg/mL
HPLC Conc. ([4]; target pH 3.0 buffer): <0.001 mg/mL
XRPD pattern of recovered solids ([4]; target pH 3.0 buffer, ** = free acid): 1**
HPLC Conc. ([4]; target pH 4.0 buffer): <0.001 mg/mL
XRPD pattern of recovered solids ([4]; target pH 4.0 buffer, ** = free acid): 1**
XRPD of recovered solids ([4]; target pH 6.8): Amorphous solids
HPLC Conc. ([4]; target pH 6.8 buffer): 0.5 mg/mL
HPLC Conc./ ([4]; target pH 6.8 phosphate buffer): 0.5 mg/mL
XRPD of recovered solids ([4]; target pH 8.0): Amorphous solids
HPLC Conc. ([4]; target pH 8.0 buffer): 17.7 mg/mL
HPLC Conc./ ([4]; target pH 8.0 phosphate buffer): 17.7 mg/mL
XRPD of solids recovered at the end of the experiment [5]: consistent with ethanolamine salt
HPLC/ % area [6, 7]: 97.4 % area
XRPD [6, 8]: 1*
HPLC [6, 8]: 97.3 % area
XRPD [6, 9]: 1*
HPLC [6, 9]: 97.3 % area
XRPD [6, 10]: 1*
HPLC [6, 10]: 97.5 % area
XRPD [6, 11]: 1*
HPLC [6, 11]: 97.0 % area
XRPD [6, 7]: 1*
HPLC [6, 7]: 97.3 % area
RRT 0.801 impurity ([6]; 25° C./60% RH, 1 week): 0.10 % area
RRT 0.970 impurity ([6]; 25° C./60% RH, 1 week): 0.10 % area
RRT 1.000 (HBI-3808) ([6]; 25° C./60% RH, 1 week): 97.31 % area
RRT 1.025 (Isomer of HBI-3808) ([6]; 25° C./60% RH, 1 week): 2.48 % area
Total Impurities ([6]; 25° C./60% RH, 1 week): 2.69 % area
RRT 0.970 impurity ([6]; 25° C./60% RH, 2 weeks): 0.12 % area
RRT 1.000 (HBI-3808) ([6]; 25° C./60% RH, 2 weeks): 97.29 % area
RRT 1.025 (Isomer of HBI-3808) ([6]; 25° C./60% RH, 2 weeks): 2.39 % area
RRT 1.935 impurity ([6]; 25° C./60% RH, 2 weeks): 0.20 % area
Total Impurities ([6]; 25° C./60% RH, 2 weeks): 2.71 % area
RRT 0.970 impurity ([6]; 25° C./60% RH, 4 weeks): 0.11 % area
RRT 1.000 (HBI-3808) ([6]; 25° C./60% RH, 4 weeks): 97.47 % area
RRT 1.025 (Isomer of HBI-3808) ([6]; 25° C./60% RH, 4 weeks): 2.41 % area
Total Impurities ([6]; 25° C./60% RH, 4 weeks): 2.53 % area
RRT 0.970 impurity ([6]; 25° C./60% RH, 8 weeks): 0.10 % area
RRT 1.000 (HBI-3808) ([6]; 25° C./60% RH, 8 weeks): 96.99 % area
RRT 1.025 (Isomer of HBI-3808) ([6]; 25° C./60% RH, 8 weeks): 2.51 % area
RRT 1.767 impurity ([6]; 25° C./60% RH, 8 weeks): 0.29 % area
Total Impurities ([6]; 25° C./60% RH, 8 weeks): 3.01 % area
RRT 0.801 impurity ([6]; 25° C./60% RH, 13 weeks): 0.12 % area
RRT 1.000 (HBI-3808) ([6]; 25° C./60% RH, 13 weeks): 97.33 % area
RRT 1.025 (Isomer of HBI-3808) ([6]; 25° C./60% RH, 13 weeks): 2.37 % area
RRT 1.935 impurity ([6]; 25° C./60% RH, 13 weeks): 0.19 % area
Total Impurities ([6]; 25° C./60% RH, 13 weeks): 2.67 % area
RRT 1.000 (HBI-3808) ([6]; 25° C./60% RH, T = 0): 97.82 % area
RRT 1.025 (Isomer of HBI-3808) ([6]; 25° C./60% RH, T = 0): 2.18 % area
Total Impurities ([6]; 25° C./60% RH, T = 0): 2.18 % area
HPLC/ % area ([6]; 40° C./75% RH (open vial), 13 Weeks): 97.4 % area
XRPD [6, 12]: 1*
HPLC [6, 12]: 97.3 % area
XRPD ([6]; 40° C./75% RH (open vial), 2 Weeks): 1*
SMILES: C[C@@H]1CC[C@]2(C(=O)O)CC[C@]3(C)C(=CC[C@@H]4[C@@]5(C)C[C@@H](O)[C@H](O)[C@@](C)(CO)[C@@H]5CC[C@]43C)[C@@H]2[C@]1(C)O.NCCO [ethanolamine salt of HBI-3808, ETHANOLAMINE SALT OF 23-HYDROXYTORMENTIC ACID]
XRPD of recovered solids ([4]; target pH 3.0): consistent with HBI-3808 free acid of Pattern 1
XRPD of recovered solids ([4]; target pH 4.0): consistent with HBI-3808 free acid of Pattern 1
